This is an account of results in ChEMBL document CHEMBL1697821, “Development of a phospholipidosis database and predictive quantitative structure-activity relationship (QSAR) models” (Toxicol Mech Methods, 2008).

Structures are written as SMILES.

The subject of the series is Phospholipidosis. Kind of series: Literature-mined public compounds from Kruhlak et al phospholipidosis modelling dataset.
Turning to `CN1[C@@H]2CC[C@H]1C[C@@H](OC(=O)C(CO)c1ccccc1)C2` (some centres undefined) [ATROPINE], the Phospholipidosis result was “Positive: weak inducer based on presence of foamy macrophages and cytoplasmic vacuolations”. As for `CN(C)CCCC1(c2ccc(F)cc2)OCc2cc(C#N)ccc21` (centres undefined) [CITALOPRAM], the Phospholipidosis entry was “Positive: strong inducer confirmed by electron microscopy”. Take `CC(=O)OC[C@H]1O[C@@H](n2ncc(=O)[nH]c2=O)[C@H](OC(C)=O)[C@@H]1OC(C)=O` [AZARIBINE]: the Phospholipidosis result is “Negative: based on the absence of positive reported data from WMDD”. Then `OC[C@H]1O[C@H](O[C@H]2[C@H](O)[C@@H](O)[C@H](O)O[C@@H]2CO)[C@H](O)[C@@H](O)[C@@H]1O` [MALTOSE], with “Negative: based on the absence of positive reported data from WMDD”; and `CC(C)(CO)[C@@H](O)C(=O)NCCC(=O)O` [PANTOTHENIC ACID], with “Negative: based on the absence of positive reported data from WMDD”; and `C#CC(O)(/C=C/Cl)CC` (centres undefined) [ETHCHLORVYNOL], with “Negative: based on the absence of positive reported data from WMDD”. `N=C(N)N/N=C1C=C/C(=N\NC(N)=S)C=C\1` [AMBAZONE]: the Phospholipidosis entry was “Negative: based on the absence of positive reported data from WMDD”.

Turning to `CC(=O)OCC(=O)[C@H]1CC[C@H]2[C@@H]3CCC4=CC(=O)CC[C@]4(C)[C@H]3CC[C@]12C` [DESOXYCORTICOSTERONE ACETATE], the Phospholipidosis entry is “Negative: based on the absence of positive reported data from WMDD”. Regarding `CC(CCCN(CCCl)CCCl)Nc1ccnc2cc(Cl)ccc12` (centres undefined) [CHLOROQUINE MUSTARD], the Phospholipidosis result was “Positive: weak inducer based on presence of foamy macrophages and cytoplasmic vacuolations”.

In the case of `CC1(O)CCC(C(C)(C)O)CC1.O` (centres undefined) [TERPIN HYDRATE], the Phospholipidosis result is “Negative: based on the absence of positive reported data from WMDD”.

Turning to `O=C1CN=C(c2ccccc2)c2cc(Cl)ccc2N1CC(F)(F)F` [HALAZEPAM], the Phospholipidosis entry is given as “Negative: based on the absence of positive reported data from WMDD”. The entry for `CCN(CC)CCc1nc(-c2ccccc2)no1` [OXOLAMINE] is “Negative: based on the absence of positive reported data from WMDD”; for `Oc1c(Cl)cc(Cl)c2cccnc12` [CHLOROXINE] it is “Negative: based on the absence of positive reported data from WMDD”. For the compound `CC(=O)O[C@H]1CC[C@@]2(C)C(=CC[C@@H]3[C@@H]2CC[C@]2(C)C(=O)CC[C@@H]32)C1` [DEHYDROEPIANDROSTERONE ACETATE], the Phospholipidosis entry was “Negative: based on the absence of positive reported data from WMDD”. Then `NC[C@@H]1CC[C@@H](N)[C@@H](O[C@H]2[C@H](O)[C@@H](O[C@H]3O[C@H](CO)[C@@H](O)[C@H](N)[C@H]3O)[C@H](N)C[C@@H]2N)O1` [DIBEKACIN], with “Positive: strong inducer confirmed by electron microscopy”; and `COc1ccc(C(CN(C)C)C2(O)CCCCC2)cc1` (centres undefined) [VENLAFAXINE], with “Negative: based on the absence of positive reported data from WMDD”.

As to `CCn1cc(C(=O)O)c(=O)c2cc3c(cc21)OCO3` [OXOLINIC ACID], the Phospholipidosis result is given as “Negative: based on the absence of positive reported data from WMDD”. The entry for `CCOC(=O)Nc1ccc2c(c1)N(C(=O)CCN1CCOCC1)c1ccccc1S2` [MORICIZINE] is “Negative: based on the absence of positive reported data from WMDD”. The entry for `O=C(OC[C@H]1O[C@](O)(COC(=O)c2cccnc2)[C@@H](OC(=O)c2cccnc2)[C@@H]1OC(=O)c1cccnc1)c1cccnc1` [NICOFURANOSE] is “Negative: based on the absence of positive reported data from WMDD”; for `CN1CCN(C2=Nc3cc(Cl)ccc3N(C)n3cccc32)CC1` it is “Positive: strong inducer confirmed by electron microscopy”. Then `CCN(CC)CCSC(=O)C(c1ccccc1)c1ccccc1`, with “Negative: based on the absence of positive reported data from WMDD”; and `CC(CN1CC(=O)NC(=O)C1)N1CC(=O)NC(=O)C1` (centres undefined) [RAZOXANE], with “Negative: based on the absence of positive reported data from WMDD”. For the compound `CC(CN(C)C)CN1c2ccccc2CCc2ccccc21` (centres undefined) [TRIMIPRAMINE], the Phospholipidosis entry is “Positive: weak inducer based on presence of foamy macrophages and cytoplasmic vacuolations”.

In the case of `CC1(C)C(=O)NC(=O)N1CC(N)COc1ccc(-c2ccc(OC(F)(F)F)cc2)cc1` (centres undefined), the Phospholipidosis result was “Positive: weak inducer based on presence of foamy macrophages and cytoplasmic vacuolations”. The entry for `Cc1cc(-c2ccc(/N=N/c3ccc4c(S(=O)(=O)[O-])cc(S(=O)(=O)[O-])c(N)c4c3O)c(C)c2)ccc1/N=N/c1ccc2c(S(=O)(=O)[O-])cc(S(=O)(=O)[O-])c(N)c2c1O.[Na+].[Na+].[Na+].[Na+]` [EVANS BLUE] is “Negative: based on the absence of positive reported data from WMDD”; for `CN[C@@H](C)[C@@H](O)c1ccccc1` [PSEUDOEPHEDRINE] it is “Negative: based on the absence of positive reported data from WMDD”; for `CC(=O)OCC1=C(C(=O)O)N2C(=O)[C@@H](NC(=O)[C@H](N)c3ccccc3)[C@H]2SC1` [CEPHALOGLYCIN] it is “Negative: based on the absence of positive reported data from WMDD”.

On to `Cc1ccc(S(=O)(=O)NC(=O)NC2CCCCC2)cc1N` [METAHEXAMIDE], for which the Phospholipidosis result is given as “Negative: based on the absence of positive reported data from WMDD”. The entry for `CCOC(=O)N1CCC(=C2c3ccc(Cl)cc3CCc3cccnc32)CC1` [LORATADINE] is “Positive: weak inducer based on presence of foamy macrophages and cytoplasmic vacuolations”.

On to `CC[C@]1(O)CC[C@H]2[C@@H]3CCC4=CC(=O)CC[C@@H]4[C@H]3CC[C@@]21C` [NORETHANDROLONE], for which the Phospholipidosis entry is recorded as “Negative: based on the absence of positive reported data from WMDD”.

With `CCC(=O)O[C@](Cc1ccccc1)(c1ccccc1)[C@H](C)CN(C)C` [PROPOXYPHENE], the Phospholipidosis entry is listed as “Negative: based on the absence of positive reported data from WMDD”. The entry for `CN(C)[C@@H]1C(O)=C(C(N)=O)C(=O)[C@@]2(O)C(O)=C3C(=O)c4c(O)ccc(Cl)c4[C@@](C)(O)[C@H]3C[C@@H]12` [CHLORTETRACYCLINE] is “Negative: confirmed by electron microscopy”; for `Nc1ncnc2nc[nH]c12` [ADENINE] it is “Negative: based on the absence of positive reported data from WMDD”; for `CCCCC(=O)O[C@]1(C(=O)COC(C)=O)CC[C@H]2[C@@H]3CCC4=CC(=O)C=C[C@]4(C)[C@H]3[C@@H](O)C[C@@]21C` [PREDNISOLONE VALERATE ACETATE] it is “Negative: based on the absence of positive reported data from WMDD”. Then `CC(C)(C)NCC(O)c1cc(O)cc(O)c1` (centres undefined) [TERBUTALINE], with “Negative: based on the absence of positive reported data from WMDD”; and `CCCC(=O)c1ccc2c(c1)N(CCCN1CCN(C)CC1)c1ccccc1S2` [BUTAPERAZINE], with “Negative: based on the absence of positive reported data from WMDD”. The entry for `CC(=O)Nc1c(I)c(C(=O)O)c(I)c(N(C)C(C)=O)c1I` [METRIZOIC ACID] is “Negative: based on the absence of positive reported data from WMDD”; for `CC(=O)OCC(CCn1cnc2cnc(N)nc21)COC(C)=O` [FAMCICLOVIR] it is “Negative: based on the absence of positive reported data from WMDD”; for `CCC(=O)O[C@H]1CC[C@H]2[C@@H]3CC[C@H]4CC(=O)[C@H](C)C[C@]4(C)[C@H]3CC[C@]12C` [DROMOSTANOLONE PROPIONATE] it is “Negative: based on the absence of positive reported data from WMDD”. Regarding `CCC1(C2=CCCCC2)C(=O)NC(=O)NC1=O` [CYCLOBARBITAL], the Phospholipidosis result is on record as “Negative: based on the absence of positive reported data from WMDD”. `CCn1nc(C)c2c1C(c1ccccc1)=NCC(=O)N2` [RIPAZEPAM]: the Phospholipidosis entry was “Negative: based on the absence of positive reported data from WMDD”. Then `C=CCC1(C(C)CCC)C(=O)NC(=O)NC1=O` (centres undefined) [SECOBARBITAL], with “Negative: based on the absence of positive reported data from WMDD”; and `CCN(CC)C(=O)[C@@H]1C=C2c3cccc4[nH]cc(c34)C[C@H]2N(C)C1` [LYSERGIDE], with “Positive: weak inducer based on presence of foamy macrophages and cytoplasmic vacuolations”; and `O=C(O)c1cc(/N=N/c2ccc(O)c(C(=O)O)c2)ccc1O` [OLSALAZINE], with “Negative: based on the absence of positive reported data from WMDD”. In the case of `CN(C/C=C/C#CC(C)(C)C)Cc1cccc2ccccc12` [TERBINAFINE], the Phospholipidosis result is recorded as “Negative: based on the absence of positive reported data from WMDD”. Then `COC1=CC(=O)C[C@@H](C)[C@]12Oc1c(Cl)c(OC)cc(OC)c1C2=O` [GRISEOFULVIN], with “Negative: based on the absence of positive reported data from WMDD”. Then `O=C1CC2(CCCC2)CC(=O)N1CCCCN1CCN(c2ncccn2)CC1` [BUSPIRONE], with “Negative: confirmed by electron microscopy”; and `Nc1ccc(/N=N/c2ccccc2)c(N)n1` [PHENAZOPYRIDINE], with “Negative: based on the absence of positive reported data from WMDD”; and `Cc1oncc1C(=O)Nc1ccc(C(F)(F)F)cc1` [LEFLUNOMIDE], with “Negative: based on the absence of positive reported data from WMDD”.

Regarding `CCCNC(=O)NS(=O)(=O)c1ccc(Cl)cc1` [CHLORPROPAMIDE], the Phospholipidosis entry is on record as “Negative: based on the absence of positive reported data from WMDD”. Then `CNC(C)CCC=C(C)C` (centres undefined) [ISOMETHEPTENE], with “Negative: based on the absence of positive reported data from WMDD”; and `CN1C(=O)CN=C(c2ccccc2)c2cc([N+](=O)[O-])ccc21` [NIMETAZEPAM], with “Negative: based on the absence of positive reported data from WMDD”. The entry for `O=C(CCCCC(=O)Nc1c(I)cc(I)c(C(=O)O)c1I)Nc1c(I)cc(I)c(C(=O)O)c1I` [IODIPAMIDE] is “Negative: based on the absence of positive reported data from WMDD”.

With `CCCCCCc1ccc(O)cc1O` [HEXYLRESORCINOL], the Phospholipidosis entry is on record as “Negative: based on the absence of positive reported data from WMDD”.
